Laboratory results published in patent US9801961B2, “2-phenylimidazo[1,2-a]pyrimidines as imaging agents” (Hoffmann-La Roche Inc., priority 2013, dated 2017).

Tested on: native tau aggregates
Test: TAU radioligand in vitro displacement assay ([3H]T808 autoradiography on human AD brain sections)
Format: binding
Settings: compound 10 nM, radioligand [3H]T808 10 nM, 50 mM Tris pH 7.4, room temperature, 30 min
Method: TAU Radioligand-In-Vitro Displacement Assay
This in vitro binding assay assesses the affinity of compounds for native tau aggregates. The compounds are co-incubated with the well-established tau specific radioligand [^3H]T808 and the compound's displacement potency of [^3H]T808 binding is determined by in vitro autoradiography using human Alzheimer's disease (AD) brain sections (FIG. 1).
AD human brains are purchased from Banner Sun Health Research Institute (Sun City, Ariz., USA). Pathological diagnosis of AD is made according to standard NIA-Reagan Institute criteria based on neuropathological data. The radioligand [^3H]T808 was synthesized in-house ([^3H]-2-[4-(2-Fluoro-ethyl)-piperidin-1-yl]-benzo[4,5]imidazo[1,2-a]pyrimidine, radiochemical purity 99.0%). As a reference cold T808 is used (2-[4-(2-Fluoro-ethyl)-piperidin-1-yl]-benzo[4,5]imidazo[1,2-a]pyrimidine). For the autoradiography FujiFilm Imaging Plates (BAS-IP TR 2025) are exposed to the sections and read with a FujiFilm IP reader (BAS-5000).
Ten μm thick human AD brain sections are generated with a cryostat (Leica CM3050) at −17° C. chamber temperature and −15° C. object temperature. Sections are transferred to Histobond+microscope slides (Marienfeld Laboratory Glasware). After drying for 3 hours at room temperature the sections are stored at −20° C. The sections are incubated with the radioligand (10 nM) and the respective cold compound (at various concentrations) in 50 mM Tris buffer, pH 7.4 at room temperature for 30 min. After washing 3×10 min at 4° C. in 50 mM Tris buffer, pH 7.4 and 3 quick dips in H2O dist. at 4° C. the sections are dried at 4° C. for 3 h. The sections are placed in a FujiFilm Cassette (BAS 2025), exposed with an Imaging Plate for five days and afterwards scanned with a resolution of […].
The signal intensity (Dens—PSL/mm2) in the region of interest (ROI) of the autoradiogram is quantified with the software MCID analysis (version 7.0, Imaging Research Inc.). The specific binding (SB) of [^3H]T808 binding in absence or in presence of a compound is calculated by subtracting the non-specific binding signal in the white matter, thus yielding SB[3H]T808 only and SBcompund. The % displacement by the various compounds is calculated as following: % displacement=100−(SBcompund/SB[3H]T808 only)*100.
In each experiment cold T808 is used as a positive internal control. Co-incubation of equimolar amounts of hot and cold T808 is expected to reduce specific binding by approximately 50%.

SMILES	% displacement of [3H]T808 (10 nM) at 10 nM [%]
FCOc1ccc(-c2cn3ccc(NC4CC4)nc3n2)cc1 [Example 140, N-Cyclopropyl-2-(4-(fluoromethoxy)phenyl)imidazo[1,2-a]pyrimidin-7-amine]	11
COc1ccc(-c2cn3ccc(N4CCC4)nc3n2)cc1 [Example 69, 7-(Azetidin-1-yl)-2-(4-methoxyphenyl)imidazo[1,2-a]pyrimidine]	40
FCCOc1ccc(-c2cn3ccc(N4CCC4)nc3n2)cc1 [Example 111, 7-(Azetidin-1-yl)-2-(4-(2-fluoroethoxy)phenyl)imidazo[1,2-a]pyrimidine]	25
CN(C)c1ccc(-c2cn3ccc(N4CCOCC4)nc3n2)cc1 [Example 74, N,N-Dimethyl-4-(7-morpholin-4-ylimidazo[1,2-a]pyrimidin-2-yl)aniline]	16
CNc1ccn2cc(-c3ccc(N(C)C)cc3)nc2n1 [Example 90, 2-[4-(Dimethylamino)phenyl]-N-methylimidazo[1,2-a]pyrimidin-7-amine]	38
COc1ccc(-c2cn3ccc(N4CCCC4)nc3n2)cc1 [Example 43, 2-(4-Methoxyphenyl)-7-pyrrolidin-1-ylimidazo[1,2-a]pyrimidine]	29
CN(C)c1ccn2cc(-c3ccsc3)nc2n1 [Example 85, N,N-Dimethyl-2-thiophen-3-ylimidazo[1,2-a]pyrimidin-7-amine]	35
CNc1ccn2cc(-c3ccc(OCCCF)cc3)nc2n1 [Example 124, 2-(4-(3-Fluoropropoxy)phenyl)-N-methylimidazo[1,2-a]pyrimidin-7-amine]	40
Cc1ccc(-c2cn3ccc(N(C)C)nc3n2)cc1 [Example 39, N,N-Dimethyl-2-(4-methylphenyl)imidazo[1,2-a]pyrimidin-7-amine]	49
COc1ccc(-c2cn3ccc(N(C)CCF)nc3n2)cc1 [Example 23, N-(2-Fluoroethyl)-2-(4-methoxyphenyl)-N-methylimidazo[1,2-a]pyrimidin-7-amine]	33
CNc1ccn2cc(-c3cccc(OC)c3)nc2n1 [Example 117, 2-(3-Methoxyphenyl)-N-methylimidazo[1,2-a]pyrimidin-7-amine]	40
COc1ccc(-c2cn3ccc(N(C)C4CC4)nc3n2)cc1 [Example 93, N-Cyclopropyl-2-(4-methoxyphenyl)-N-methylimidazo[1,2-a]pyrimidin-7-amine]	42
COc1ccc(-c2cn3ccc(N4CCC4)nc3n2)cc1OC [Example 128, 7-(Azetidin-1-yl)-2-(3,4-dimethoxyphenyl)imidazo[1,2-a]pyrimidine]	15
CCN(CC)c1ccn2cc(-c3ccc(OC)cc3)nc2n1 [Example 67, N,N-Diethyl-2-(4-methoxyphenyl)imidazo[1,2-a]pyrimidin-7-amine]	19
COc1cccc(-c2cn3ccc(N4CCCC4)nc3n2)c1 [Example 47, 2-(3-Methoxyphenyl)-7-pyrrolidin-1-ylimidazo[1,2-a]pyrimidine]	20
FC1CCN(c2ccn3cc(-c4ccccc4)nc3n2)CC1 [Example 2, 7-(4-Fluoropiperidin-1-yl)-2-phenylimidazo[1,2-a]pyrimidine]	19

SMILES	% displacement of [3H]T808 (10 nM) at 10 nM [%]
Cc1ccc(-c2cn3ccc(N4CCC(CCF)CC4)nc3n2)cc1 [Example 60, 7-[4-(2-Fluoroethyl)piperidin-1-yl]-2-(4-methylphenyl)imidazo[1,2-a]pyrimidine]	15
FC1CCN(c2ccn3cc(-c4cccc(OC(F)(F)F)c4)nc3n2)CC1 [Example 15, 7-(4-Fluoropiperidin-1-yl)-2-[3-(trifluoromethoxy)phenyl]imidazo[1,2-a]pyrimidine]	14
CSc1cccc(-c2cn3ccc(N4CCC4)nc3n2)c1 [Example 126, 7-(Azetidin-1-yl)-2-(3-(methylthio)phenyl)imidazo[1,2-a]pyrimidine]	15
FCCOc1ccc(-c2cn3ccc(N4CCCC4)nc3n2)cc1 [Example 29, 2-[4-(2-Fluoroethoxy)phenyl]-7-pyrrolidin-1-ylimidazo[1,2-a]pyrimidine]	15
CCN(C)c1ccn2cc(-c3ccc(OC)cc3)nc2n1 [Example 66, N-Ethyl-2-(4-methoxyphenyl)-N-methylimidazo[1,2-a]pyrimidin-7-amine]	34
CNc1ccn2cc(-c3ccc(C)cc3)nc2n1 [Example 82, N-Methyl-2-(4-methylphenyl)imidazo[1,2-a]pyrimidin-7-amine]	38
CNc1ccn2cc(-c3ccc(C)c(OC)c3)nc2n1 [Example 143, 2-(3-Methoxy-4-methylphenyl)-N-methylimidazo[1,2-a]pyrimidin-7-amine]	21
CN(C)c1ccn2cc(-c3ccc(CO)cc3)nc2n1 [Example 135, [4-[7-(Dimethylamino)imidazo[1,2-a]pyrimidin-2-yl]phenyl]methanol acetic acid adduct]	18
COc1ccc(-c2cn3ccc(NC4CC4)nc3n2)cc1 [Example 76, N-Cyclopropyl-2-(4-methoxyphenyl)imidazo[1,2-a]pyrimidin-7-amine]	43
CNc1ccn2cc(-c3ccc(C(=O)OC)cc3)nc2n1 [Example 136, Methyl 4-[7-(methylamino)imidazo[1,2-a]pyrimidin-2-yl]benzoate]	27
Cc1ccc(-c2cn3ccc(N(C)CCF)nc3n2)cc1 [Example 86, N-(2-Fluoroethyl)-N-methyl-2-(4-methylphenyl)imidazo[1,2-a]pyrimidin-7-amine]	16
CNc1ccn2cc(-c3ccccc3)nc2n1 [Example 1, N-Methyl-2-phenylimidazo[1,2-a]pyrimidin-7-amine]	37
CNc1ccn2cc(-c3ccc(OCCF)cc3)nc2n1 [Example 123, 2-(4-(2-Fluoroethoxy)phenyl)-N-methylimidazo[1,2-a]pyrimidin-7-amine]	43
COc1ccc(-c2cn3ccc(N4CCCCC4)nc3n2)cc1 [Example 49, 2-(4-Methoxyphenyl)-7-piperidin-1-ylimidazo[1,2-a]pyrimidine]	17
Cc1cccc(-c2cn3ccc(N(C)C)nc3n2)c1 [Example 40, N,N-Dimethyl-2-(3-methylphenyl)imidazo[1,2-a]pyrimidin-7-amine]	51

Same assay, conditions: compound 1 uM, radioligand [3H]T808 10 nM, 50 mM Tris pH 7.4, room temperature, 30 min

SMILES	% displacement of [3H]T808 (10 nM) at 1 uM [%]
FC1CCN(c2ccn3cc(-c4ccc(N5CCOCC5)cc4)nc3n2)CC1 [Example 9, 4-[4-[7-(4-Fluoropiperidin-1-yl)imidazo[1,2-a]pyrimidin-2-yl]phenyl]morpholine]	75
Oc1cccc(-c2cn3ccc(N4CCC(F)CC4)nc3n2)c1 [Example 13, 3-[7-(4-Fluoropiperidin-1-yl)imidazo[1,2-a]pyrimidin-2-yl]phenol]	67
COc1ccc(-c2cn3ccc(N(C)CCF)nc3n2)cc1 [Example 23, N-(2-Fluoroethyl)-2-(4-methoxyphenyl)-N-methylimidazo[1,2-a]pyrimidin-7-amine]	92
FC1CCN(c2ccn3cc(-c4ccccc4)nc3n2)CC1 [Example 2, 7-(4-Fluoropiperidin-1-yl)-2-phenylimidazo[1,2-a]pyrimidine]	72
FCCOc1cccc(-c2cn3ccc(N4CCCC4)nc3n2)c1 [Example 17, 2-[3-(2-Fluoroethoxy)phenyl]-7-pyrrolidin-1-ylimidazo[1,2-a]pyrimidine]	76
CN(CCF)c1ccn2cc(-c3ccccc3)nc2n1 [Example 21, N-(2-Fluoroethyl)-N-methyl-2-phenylimidazo[1,2-a]pyrimidin-7-amine]	84
